In patent US7205329B2, “Modulators of CRTH2 activity” (Microbia, Inc., priority 2003, dated 2007):

How the values were obtained:
[1] = tested on: CCR3; details: Stubbs et al. 2002, J Biol Chem 277:26012–26020; cited from earlier work
[2] = tested on: neutrophils; test: CD11b expression assay, neutrophil control for CRTH2 agonist activity; assay type: cell-based, human; details: leukocytes incubated with test compound 10 min at room temperature; flow cytometry
From the text: CRTH2 agonists increase the expression of CD11b on eosinophils. […] They do, however, express receptors for other lipid mediators, including 5-oxo-6,8,11,14-eicosatetraenoic acid (5-oxo-ETE), leukotriene B4 (LTB4), and platelet activating factor. Therefore, any increased expression of CD11b by neutrophils is likely to be caused by an activity other than activation of CRTH2. Accordingly, preferred compounds increase CD11b expression on eosinophils, but not on neutrophils.
The potential CRTH2 agonist activity of certain compounds was tested using a CD11b expression assay using essentially the method described by Monneret et al. (J Pharmacol Exp Ther 304:349–55, 2003), and the results of this analysis are presented in FIG. 1 where the results of two separate experiments are reported.
Briefly, leukocytes (0.5 ml; 10^6/ml cells) in PBS containing 0.9 mM CaCl2 and 0.5 mM MgCl2) were incubated with a test compound at room temperature for 10 min. The incubations were terminated by the addition of ice-cold FACSFlow (BD Biosciences; Cat# 342003) and centrifugation (400 g for 5 min at 4° C.). […] The distribution of fluorescence intensities among 60,000 cells was measured by flow cytometry. Eosinophils were gated out on the basis of their granularity (high side scatter) and labeling with VLA-4 (PE fluorescence). CD11b was then measured in the eosinophil region on the basis of fluorescence due to FITC. […]

| SMILES | expression of CCR3, the receptor for eotaxin [1] | expression of CD11b on neutrophils [2] |
| --- | --- | --- |
| COc1ccc2c(c1)c(CC(=O)O)c(C)n2C(=O)c1ccc(Cl)cc1 [indomethacin] | reduces expression of CCR3 | – |
| CCCCCC=CCC=CCC=CC=CC(=O)CCCC(=O)O [5-oxo-ETE, 5-oxo-6,8,11,14-eicosatetraenoic acid] | – | increased expression of CD11b on neutrophils |
